From US20240317748A1, “CARBONYL SUBSTITUTED DIAZASPIRO COMPOUNDS AND ITS USE” (BIONOVA PHARMACEUTICALS (SHANGHAI) LIMITED, priority 2021, published 2024)

system: MV-4-11 cells; experiment: Cell proliferation assay (CellTiter-Glo), MV-4-11; type: cell-based, human; settings: Homo sapiens, MV4-11, 96 h; MV-4-11 (MLL-AF4), 4 days incubation; read-out: Cell antiproliferation assay MV-4-11 IC50
Experimental: (§1) The antiproliferative activity of test compounds was assessed in human leukemia cell lines. The cell line MV4-11, MOLM13 and OCI-AML3, which expresses the MLL fusion protein MLL-AF4, MLL-AF9 and carry the NPM1c gene mutation, respectively, were tested. HL-60 was used as a control cell line containing two MLL wildtype alleles in order to exclude compounds that display general cytotoxic effect. MV4-11 cells were cultured in IMDM supplemented with 10% FBS, MOLM13 and OCI-AML3 cells were cultured in RPMI1640 supplemented with 20% FBS, and HL-60 cells were cultured in IMDM supplemented with 20% FBS. Corresponding cells (MV4-11, MOLM13, OCI-AML3 or HL-60 cell line) were seeded in 100 uL medium per well in 96-well plate (white wall with clear bottom, tissue culture treated, Corning, Cat. No. CLS3903; Lot.No. 30419025). Plates were placed in the CO2 incubator overnight. Compounds solution (2 mM starting, 4-fold serial dilution) were prepared and added to the wells containing 100 μL of the culture medium with HPD300 according to the plate map and centrifuge at 1000 rpm for 1 minutes (200-fold dilution totally). MV4-11, MOLM13, OCI-AML3 and HL-60 cells were incubated with the compounds for 4, 12, 5 and 4 days, respectively, under 5% CO2 at 37° C., respectively. 100 μL of CellTiter-Glo reagent (Promega, Cat. No. G7573, Lot. No. 0000416710) was added to the assay plate by Multidrop Combi instrument, contents were mixed for 10 minutes on an orbital shaker to induce cell lysis. After incubation at room temperature for 10 mins, clear bottom with white back seal was pasted and luminescence with Envision was read.

IC50 | SMILES
2.6 nM | N#Cc1ccc(-c2cc(F)ccc2Oc2nncnc2N2CC3(CCN(C(=O)[C@H]4NC[C@@H]5CCC[C@@H]54)CC3)C2)c(C2CC2)n1 [Example 90]
39 nM | O=C([C@H]1NC[C@@H]2C[C@@H]21)N1CCC2(CC1)CN(c1ncnnc1Oc1ccc(F)cc1-c1cncnc1C1CC1)C2 [Example 80]
5.9 nM | C[C@H]1CCN[C@@H]1C(=O)N1CCC2(CC1)CN(c1ncnnc1Oc1ccc(F)cc1-c1ccc(C#N)cc1C1CC1)C2 [Example 79]

More lines, now with the values behind:

SMILES | IC50
CC(C)n1ncc(Cl)c1-c1cc(F)ccc1Oc1cncnc1N1CC2(CCN(C(=O)[C@@H]3C[C@@H](F)CN3)CC2)C1 [Example 58] | 27.1 nM
CC(C)N(C(=O)c1cc(F)ccc1Oc1nncnc1N1CC2(CCN(C(=O)[C@@H]3C[C@@H](F)CN3)CC2)C1)C(C)C [Example 56] | 16.8 nM
CC[C@@H]1[C@@H](C(=O)N2CCC3(CC2)CN(c2ncnnc2Oc2ccc(F)cc2C(=O)N(CC)C(C)C)C3)NC[C@@H]1F [Example 86] | 76 nM
CCN(C(=O)c1cc(F)ccc1Oc1cncnc1N1CC2(CCN(C(=O)[C@H]3NCC[C@@H]3C)CC2)C1)C(C)C [Example 41] | 7.7 nM
CCN(C(=O)c1cc(F)ccc1Oc1cncnc1N1CC2(CCN(C(=O)[C@H]3NC[C@@H]4C[C@@H]43)CC2)C1)C(C)C [Example 34] | 18 nM
CCN(C(=O)c1cc(F)ccc1Oc1nnc(Cl)nc1N1CC2(CCN(C(=O)[C@H]3NC[C@@H]4C[C@@H]43)CC2)C1)C(C)C [Example 91] | 248 nM
CCN(C(=O)c1cc(F)ccc1Oc1cncnc1N1CC2(CCN(C(=O)[C@H]3NCc4ccccc43)CC2)C1)C(C)C [Example 33] | 19.3 nM

system: OCI-AML3 cells; experiment: Cell proliferation assay (CellTiter-Glo), OCI-AML3; type: cell-based, human; settings: Homo sapiens, OCI-AML-3, 120 h; OCI-AML3 (NPM1c mutation), 5 days incubation; read-out: Cell antiproliferation assay OCI-AML3 IC50
Experimental: as §1

IC50 | SMILES
132 nM | CC(C)N(C(=O)c1cc(F)ccc1Oc1nncnc1N1CC2(CCN(C(=O)[C@@H]3C[C@@H](F)CN3)CC2)C1)C(C)C [Example 56]
282 nM | CC[C@@H]1[C@@H](C(=O)N2CCC3(CC2)CN(c2ncnnc2Oc2ccc(F)cc2C(=O)N(CC)C(C)C)C3)NC[C@@H]1F [Example 86]
31.4 nM | CCN(C(=O)c1cc(F)ccc1Oc1cncnc1N1CC2(CCN(C(=O)[C@H]3NCC[C@@H]3C)CC2)C1)C(C)C [Example 41]
25.9 nM | C[C@H]1CCN[C@@H]1C(=O)N1CCC2(CC1)CN(c1ncnnc1Oc1ccc(F)cc1-c1ccc(C#N)cc1C1CC1)C2 [Example 79]

system: HL-60 cells; experiment: Cell proliferation assay (CellTiter-Glo), HL-60 control line; type: cell-based, human; settings: Homo sapiens, 96 h; HL-60 control line (MLL wildtype), 4 days incubation; read-out: Cell antiproliferation assay HL-60 IC50
Experimental: as §1

IC50 | SMILES
> 10000 nM | O=C([C@H]1NC[C@@H]2C[C@@H]21)N1CCC2(CC1)CN(c1ncnnc1Oc1ccc(F)cc1-c1cncnc1C1CC1)C2 [Example 80]
> 10000 nM | C[C@H]1CCN[C@@H]1C(=O)N1CCC2(CC1)CN(c1ncnnc1Oc1ccc(F)cc1-c1ccc(C#N)cc1C1CC1)C2 [Example 79]

Further lines, the compound ahead of its results:

SMILES | IC50
CC(C)n1ncc(Cl)c1-c1cc(F)ccc1Oc1cncnc1N1CC2(CCN(C(=O)[C@@H]3C[C@@H](F)CN3)CC2)C1 [Example 58] | > 10000 nM
CC(C)N(C(=O)c1cc(F)ccc1Oc1nncnc1N1CC2(CCN(C(=O)[C@@H]3C[C@@H](F)CN3)CC2)C1)C(C)C [Example 56] | > 10000 nM
CC[C@@H]1[C@@H](C(=O)N2CCC3(CC2)CN(c2ncnnc2Oc2ccc(F)cc2C(=O)N(CC)C(C)C)C3)NC[C@@H]1F [Example 86] | > 10000 nM
CCN(C(=O)c1cc(F)ccc1Oc1cncnc1N1CC2(CCN(C(=O)[C@H]3NCC[C@@H]3C)CC2)C1)C(C)C [Example 41] | > 10000 nM
CCN(C(=O)c1cc(F)ccc1Oc1cncnc1N1CC2(CCN(C(=O)[C@H]3NC[C@@H]4C[C@@H]43)CC2)C1)C(C)C [Example 34] | > 10000 nM

same assay, conditions: Homo sapiens, 96 h; HL-60 control line, 10 μM, 4 days incubation; read-out: HL-60 (Pct of inhibition at 10 μM)

SMILES | inhibition at 10 µM
CC(C)n1ncc(Cl)c1-c1cc(F)ccc1Oc1cncnc1N1CC2(CCN(C(=O)[C@@H]3C[C@@H](F)CN3)CC2)C1 [Example 58] | -4.5%
CC(C)N(C(=O)c1cc(F)ccc1Oc1nncnc1N1CC2(CCN(C(=O)[C@@H]3C[C@@H](F)CN3)CC2)C1)C(C)C [Example 56] | -12.2%
CC[C@@H]1[C@@H](C(=O)N2CCC3(CC2)CN(c2ncnnc2Oc2ccc(F)cc2C(=O)N(CC)C(C)C)C3)NC[C@@H]1F [Example 86] | 10.8%
CCN(C(=O)c1cc(F)ccc1Oc1cncnc1N1CC2(CCN(C(=O)[C@H]3NCC[C@@H]3C)CC2)C1)C(C)C [Example 41] | -22.2%
CCN(C(=O)c1cc(F)ccc1Oc1cncnc1N1CC2(CCN(C(=O)[C@H]3NC[C@@H]4C[C@@H]43)CC2)C1)C(C)C [Example 34] | -12.2%
O=C([C@H]1NC[C@@H]2C[C@@H]21)N1CCC2(CC1)CN(c1ncnnc1Oc1ccc(F)cc1-c1cncnc1C1CC1)C2 [Example 80] | 0%
C[C@H]1CCN[C@@H]1C(=O)N1CCC2(CC1)CN(c1ncnnc1Oc1ccc(F)cc1-c1ccc(C#N)cc1C1CC1)C2 [Example 79] | 33.8%

target: T1, Menin-MLL1 (Homo sapiens, UniProt O00255); experiment: Menin-MLL1 inhibition assay (fluorescence polarization, Menin protein + FAM-MLL peptide); type: binding; settings: Menin (2-610) isoform 2, FAM-labelled MLL peptide, mP readout; read-out: Biochemical assay Menin-MLL1 IC50
T1 construct: Menin (2-610) isform2; purchased ChemPartner 2020111101
T1 sequence (O00255 2-610): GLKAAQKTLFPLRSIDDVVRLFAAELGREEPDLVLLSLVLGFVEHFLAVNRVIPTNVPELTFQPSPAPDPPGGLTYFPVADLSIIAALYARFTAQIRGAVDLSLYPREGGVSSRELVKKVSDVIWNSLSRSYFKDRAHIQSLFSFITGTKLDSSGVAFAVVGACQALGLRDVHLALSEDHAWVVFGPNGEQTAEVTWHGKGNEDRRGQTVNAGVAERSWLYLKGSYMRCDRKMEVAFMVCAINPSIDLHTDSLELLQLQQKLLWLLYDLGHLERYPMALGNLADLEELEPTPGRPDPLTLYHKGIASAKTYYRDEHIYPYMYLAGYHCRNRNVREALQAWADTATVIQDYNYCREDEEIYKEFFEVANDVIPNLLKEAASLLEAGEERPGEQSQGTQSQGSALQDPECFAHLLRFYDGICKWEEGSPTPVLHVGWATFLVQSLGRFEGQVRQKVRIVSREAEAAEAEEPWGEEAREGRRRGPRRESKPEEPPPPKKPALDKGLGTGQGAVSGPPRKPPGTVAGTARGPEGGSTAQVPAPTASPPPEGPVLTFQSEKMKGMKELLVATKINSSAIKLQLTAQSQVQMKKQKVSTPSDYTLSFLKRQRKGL
Experimental: 1× assay bu9ffer (Tris 7.5 50 mM, NaCl 50 mM, DTT 1 mM, Tween-20 0.01%) was prepared and test compounds solution (10 mM in DMSO, Sigma, Cat. No. 34869) were transferred to assay plate (384-well plate, Perkin Elmer, Cat. No. 6007279) by Echo. The final fraction of DMSO is 1%. 20 nM of Menin protein (Menin (2-610) isform2, ChemPartner, Cat. No. 2020111101) in 1× assay buffer was added to prepare 2× enzyme solution. Then 10 nM of MLL-peptide (Ac-SRWRFPARPGTGRR-Ahx-Ahx-K(FAM)-NH2, GL Biochem (Shanghai)), Cat. No. 833831/202009220104) in 1× assay buffer was added to prepare 2× substrate solution. 10 μL of 2× enzyme solution was transferred to assay plate or 10 μL of 1× assay buffer for low control group. 10 μL of 2× substrate solution was added to each well to start reaction. mP data on Envision (Ex480/Em535(s), Em535(p)) was collected.
Compound potencies were determined by first calculating % inhibition at each compound concentration according to equation 1:
Inhibition %=(Max−Signal)/(Max−Min)*100 (Equation 1)
Y=Bottom+(Top-Bottom)/(1+(IC50/X)[…]), where Y is % inhibition and X is compound concentration (Equation 2)

IC50 | SMILES
2.8 nM | N#Cc1ccc(-c2cc(F)ccc2Oc2nncnc2N2CC3(CCN(C(=O)[C@H]4NC[C@@H]5CCC[C@@H]54)CC3)C2)c(C2CC2)n1 [Example 90]
4.3 nM | O=C([C@H]1NC[C@@H]2C[C@@H]21)N1CCC2(CC1)CN(c1ncnnc1Oc1ccc(F)cc1-c1cncnc1C1CC1)C2 [Example 80]
9.9 nM | C[C@H]1CCN[C@@H]1C(=O)N1CCC2(CC1)CN(c1ncnnc1Oc1ccc(F)cc1-c1ccc(C#N)cc1C1CC1)C2 [Example 79]

Continued, compound first:

SMILES | IC50
CC(C)n1ncc(Cl)c1-c1cc(F)ccc1Oc1cncnc1N1CC2(CCN(C(=O)[C@@H]3C[C@@H](F)CN3)CC2)C1 [Example 58] | 3.5 nM
CC(C)N(C(=O)c1cc(F)ccc1Oc1nncnc1N1CC2(CCN(C(=O)[C@@H]3C[C@@H](F)CN3)CC2)C1)C(C)C [Example 56] | 3.7 nM
CC[C@@H]1[C@@H](C(=O)N2CCC3(CC2)CN(c2ncnnc2Oc2ccc(F)cc2C(=O)N(CC)C(C)C)C3)NC[C@@H]1F [Example 86] | 3.6 nM
CCN(C(=O)c1cc(F)ccc1Oc1cncnc1N1CC2(CCN(C(=O)[C@H]3NCC[C@@H]3C)CC2)C1)C(C)C [Example 41] | 3.6 nM
CCN(C(=O)c1cc(F)ccc1Oc1cncnc1N1CC2(CCN(C(=O)[C@H]3NC[C@@H]4C[C@@H]43)CC2)C1)C(C)C [Example 34] | 4.1 nM
CCN(C(=O)c1cc(F)ccc1Oc1nnc(Cl)nc1N1CC2(CCN(C(=O)[C@H]3NC[C@@H]4C[C@@H]43)CC2)C1)C(C)C [Example 91] | 7.3 nM
CCN(C(=O)c1cc(F)ccc1Oc1cncnc1N1CC2(CCN(C(=O)[C@H]3NCc4ccccc43)CC2)C1)C(C)C [Example 33] | 4.5 nM

system: MOLM13 cells; experiment: Cell proliferation assay (CellTiter-Glo), MOLM13; type: cell-based, human; settings: Homo sapiens, MOLM-13, 288 h; MOLM13 (MLL-AF9), 12 days incubation; read-out: Cell antiproliferation assay MOLM13 IC50
Experimental: as §1

IC50 | SMILES
6.1 nM | N#Cc1ccc(-c2cc(F)ccc2Oc2nncnc2N2CC3(CCN(C(=O)[C@H]4NC[C@@H]5CCC[C@@H]54)CC3)C2)c(C2CC2)n1 [Example 90]
15.6 nM | C[C@H]1CCN[C@@H]1C(=O)N1CCC2(CC1)CN(c1ncnnc1Oc1ccc(F)cc1-c1ccc(C#N)cc1C1CC1)C2 [Example 79]

Further lines, the compound ahead of its results:

SMILES | IC50
CC(C)N(C(=O)c1cc(F)ccc1Oc1nncnc1N1CC2(CCN(C(=O)[C@@H]3C[C@@H](F)CN3)CC2)C1)C(C)C [Example 56] | 68.3 nM
CC[C@@H]1[C@@H](C(=O)N2CCC3(CC2)CN(c2ncnnc2Oc2ccc(F)cc2C(=O)N(CC)C(C)C)C3)NC[C@@H]1F [Example 86] | 199 nM
CCN(C(=O)c1cc(F)ccc1Oc1cncnc1N1CC2(CCN(C(=O)[C@H]3NCC[C@@H]3C)CC2)C1)C(C)C [Example 41] | 23.7 nM
